According to patent US7371776B2, “Methods and compositions for treating cancer” (Mars, Incorporated, priority 2004, dated 2008):

Columns and labels:
Format in all cases: cell-based, human
MCF-7 cells = assay: Crystal violet cellular proliferation assay; settings: MCF-7 (wild type p53, ER-positive); 100 μg/mL
Method: (§1) Human breast cancer cell lines MDA MB-231, MDA MB-436, MD MB-468, SKBR-3 and MCF-7 were obtained from the Lombardi Comprehensive Cancer Center (LCC) Tissue Culture Shared Resource. MDA MB-231, MDA MB-436, MD MB-468 and SKBR-3 are p53-mutated estrogen receptor (ER)-negative cells. MDA MB-231 also contains a mutation in the K-ras oncogene. The MCF-7 cell line is ER-positive and non-mutated for p53. The cells were grown in complete media containing DMEM (Gibco-BRL, Gaithersburg, Md.) supplemented with 10% fetal bovine serum (FBS) (Quality Biological, Gaithersburg, Md.). In addition, media for MCF-7 contained non essential amino acids (Gibco-BRL, Gaithersburg, Md.).
(§2) One×10^3 cells per well were seeded in 96 well dishes (Coming Costar, Cambridge, Mass.). Primary cultures of HMECs, A1N4 and 184B5 cells were evaluated at two different cell densities (seeded at 1×10^3 and 2×10^3 per well). After 24 hours of cell attachment, cells in triplicate wells were treated with pentamer at a concentration of 100 μg/mL. The cells on the same plate were treated with corresponding controls: (i) media containing DMSO, and (ii) media with no additions.
(§3) Cells were treated for 1, 2, 3, 6, 8 and 10 days, but in some cases, the samples were collected at days 2, 3, 4, 7 and 10 post-treatment. Each treatment was conducted in triplicate. Samples were collected at each time point as follows: media was removed and 50 μL of crystal violet solution (0.1% of crystal violet in 0.1 M citric acid solution) was added to each well at room temperature and plates were incubated for 15 minutes, followed by washing with deionized water. Plates were dried at room temperature overnight. The following day, plates were destained by adding 100 μL of 0.1 M sodium citrate solution into each well. Plates were incubated for one hour. The optical density (OD) of samples was read at 550 nm on an Ultramark Microplate Imagining System (BioRad, Philadelphia, Pa.). The experiment was repeated twice resulting in an average of nine measurements per sample. Statistical significance was determined using the t test analysis.

MDA MB-231 cells = assay: Crystal violet cellular proliferation assay; settings: 100 μg/mL, ten days after treatment
Method: as §1, §2, §3

MDA MB-436 cells = assay: Crystal violet cellular proliferation assay; settings: 100 μg/mL, ten days after treatment
Method: as §1, §2, §3

MDA MB-468 cells = assay: Crystal violet cellular proliferation assay; settings: 100 μg/mL, ten days after treatment
Method: as §1, §2, §3

SKBR-3 cells = assay: Crystal violet cellular proliferation assay; settings: 100 μg/mL, ten days after treatment
Method: as §1, §2, §3

normal mortal HMECs = assay: Crystal violet cellular proliferation assay; settings: 100 μg/mL
Source text: Immortalized human mammary epithelial cells (HMECs), MCF-10A, 184A1N4 and 184B5, normal, finite-life-span HMECs (1001-8, CC-2551) at passage 8, originally derived from mammoplasty breast tissues, were purchased from Clonetics-BioWhittaker, Inc. (Waskersville, Md.). Cell lines generated by introduction of c-MYC, ErbB2 and RAS oncogene into MCF-10A cells (MCF-10A-ErbB2/Ras cells and MCF-10A-c-Myc) were also used.
Normal mortal HMECs were maintained according to the supplier's instructions in mammary epithelial cell growth medium (CC-3152) (Clonetics) supplemented with 52 μg of bovine pituitary extract per ml, 10 ng/mL of human EGF, 5 μg/mL of insulin, and 0.5 μg/mL of hydrocortisone and were grown in 37° C. incubators with low (0.1 to 0.2%) CO2 settings.
One×10^3 cells per well were seeded in 96 well dishes (Coming Costar, Cambridge, Mass.). Primary cultures of HMECs, A1N4 and 184B5 cells were evaluated at two different cell densities (seeded at 1×10^3 and 2×10^3 per well). […]
Cells were treated for 1, 2, 3, 6, 8 and 10 days, but in some cases, the samples were collected at days 2, 3, 4, 7 and 10 post-treatment. […] The optical density (OD) of samples was read at 550 nm on an Ultramark Microplate Imagining System (BioRad, Philadelphia, Pa.). […] Statistical significance was determined using the t test analysis.

AIN4 cells = assay: Crystal violet cellular proliferation assay; settings: 100 μg/mL
Method: The 184A1N4 cell line (hereinafter “A1N4”) is a non-tumorigenic cell line derived from primary cultures of HMECs and immortalized with benzo(a)pyrene (provided by Dr. M. R. Stampfer, University of California, Berkley, Calif.) (Stampfer, M. R. et al., Proc. Natl. Acad. Sci. USA, 82: 2394-2398, 1985). These cells were maintained in IMEM medium with 0.5% FBS, 0.5 μg/mL of hydrocortisone (Biofluids), 5 μg/mL insulin and 10 ng/mL of EGF.
as §2
Cells were treated for 1, 2, 3, 6, 8 and 10 days, but in some cases, the samples were collected at days 2, 3, 4, 7 and 10 post-treatment. Each treatment was conducted in triplicate. […] The optical density (OD) of samples was read at 550 nm on an Ultramark Microplate Imagining System (BioRad, Philadelphia, Pa.). […] Statistical significance was determined using the t test analysis.

p53 = assay: High resolution profiling (P-FILM) of p53 in MDA MB-468 cells; settings: 100 μg/mL
Method: Both p53 and pRb contain multiple phosphorylation sites, and evaluating each site separately provides a more accurate indication of each protein's potential function. Therefore, a high resolution functional profiling of the proteins was performed using P-FILM technology (20/20 Gene Systems, Inc.).
The same protein samples as those used for PDVF membrane blotting were used. Ten μg of each protein sample of MDA MB-231 cells, and in some cases MDA MB-468 and MCF-7 cells, treated with 100 μg /mL of pentamer or DMSO-treated controls, were separated by PAGE on 4-20% gradient gels (BioRad). Proteins were transferred on a stack of ten membranes, according to manufacturer's instructions (20/20 Gene Systems, Inc.). The membranes were probed with antibodies recognizing total and phosphorylated p53 (p53Ser6, Ser9, Ser15, Ser20, Ser37, Ser46 and Ser392) at 1:1000 dilution as recommended by the manufacturer (Cell Signaling). The secondary antibody used in all cases was anti-rabbit polyclonal 1:2000 (Amersham). Signals were visualized on BIOMAX MR film (Kodak). The profiling of pRb was done using anti-phospho pRb (Ser780, Ser 795 and Ser 807/811) and anti-pRb polyclonal antibody (Cell Signaling) at a 1:1000 dilution. The secondary antibody used in all cases was anti-rabbit at 1:2000 dilution (Amersham). Image analysis was performed with Kodak 1D image analysis software. Background corrected intensity values were normalized for loading by using GAPDH intensities. Numerical analysis was performed in Excel.

For `Oc1cc(O)c2c(c1)O[C@H](c1ccc(O)c(O)c1)[C@H](O)[C@H]2c1c(O)cc(O)c2c1O[C@H](c1ccc(O)c(O)c1)[C@H](O)[C@H]2c1c(O)cc(O)c2c1O[C@H](c1ccc(O)c(O)c1)[C@H](O)[C@H]2c1c(O)cc(O)c2c1O[C@H](c1ccc(O)c(O)c1)[C@H](O)[C@H]2c1c(O)cc(O)c2c1O[C@H](c1ccc(O)c(O)c1)[C@H](O)C2` [pentamer, pentameric procyanidin], the growth inhibition (MCF-7 cells) was 5.6 fold, the “growth inhibited, in comparison to DMSO-treated controls” value (from here on “growth inhibited, in comparison”) (MDA MB-231 cells) was 5 fold and the “growth inhibited, in comparison” value (MDA MB-436 cells) was 4.1 fold. For the same compound, the “growth inhibited, in comparison” value (MDA MB-468 cells) was 4 fold, the “growth inhibited, in comparison” value (SKBR-3 cells) was 5.5 fold and the “growth inhibited, in comparison” value (normal mortal HMECs) was 1.4 fold. For the same compound, the “growth inhibited, in comparison” value (AIN4 cells) was 7.3 fold, the “percentage of p53 phosphorylated at Ser392 decreased, compared to untreated controls” value (p53; MD MB-468) was 33% and the “expression of endogenous p53” value (p53; MDA MB-468) was “not significantly affected”. For the same compound, the “phosphorylation of p53 Ser15 and Ser46” value (p53; MDA MB-468) was “not significantly affected”.
